This is an account of results in ChEMBL document CHEMBL3813632, “Thiazolo[3,2-a]benzimidazol-3(2H)-one derivatives: Structure-activity relationships of selective nucleotide pyrophosphatase/phosphodiesterase1 (NPP1) inhibitors” (Bioorg Med Chem, 2016).

Each structure is given as a SMILES string. Some results are limits rather than exact numbers.

The target in data set [1] is T1, Ectonucleotide pyrophosphatase/phosphodiesterase family member 1 (Homo sapiens, UniProt P22413).
T1 sequence (P22413 whole entry): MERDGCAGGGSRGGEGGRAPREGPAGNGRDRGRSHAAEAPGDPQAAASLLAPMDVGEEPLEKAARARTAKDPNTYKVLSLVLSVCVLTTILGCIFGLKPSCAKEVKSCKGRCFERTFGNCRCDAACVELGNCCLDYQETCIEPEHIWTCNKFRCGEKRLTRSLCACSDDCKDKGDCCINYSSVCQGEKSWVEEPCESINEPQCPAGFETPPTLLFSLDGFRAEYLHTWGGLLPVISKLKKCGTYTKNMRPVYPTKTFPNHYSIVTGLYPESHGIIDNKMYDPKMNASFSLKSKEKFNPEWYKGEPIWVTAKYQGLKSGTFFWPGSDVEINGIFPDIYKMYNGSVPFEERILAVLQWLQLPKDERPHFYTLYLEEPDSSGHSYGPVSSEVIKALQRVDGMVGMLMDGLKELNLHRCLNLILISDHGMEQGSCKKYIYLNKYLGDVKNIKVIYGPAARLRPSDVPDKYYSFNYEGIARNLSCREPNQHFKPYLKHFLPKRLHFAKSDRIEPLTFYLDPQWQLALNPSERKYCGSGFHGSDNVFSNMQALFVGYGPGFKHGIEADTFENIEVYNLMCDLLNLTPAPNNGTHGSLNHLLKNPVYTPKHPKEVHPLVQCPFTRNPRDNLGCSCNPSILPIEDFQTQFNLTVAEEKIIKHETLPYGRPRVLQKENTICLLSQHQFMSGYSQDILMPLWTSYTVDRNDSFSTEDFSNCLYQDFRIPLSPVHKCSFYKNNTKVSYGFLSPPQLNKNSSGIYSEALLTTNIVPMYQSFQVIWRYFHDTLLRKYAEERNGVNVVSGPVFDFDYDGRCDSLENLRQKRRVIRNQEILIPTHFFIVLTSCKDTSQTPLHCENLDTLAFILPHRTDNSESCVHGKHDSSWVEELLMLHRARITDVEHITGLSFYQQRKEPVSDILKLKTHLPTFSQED
As to the kind of experiment: Inhibition of human recombinant NPP1 expressed in insect SF9 cells using ATP as substrate preincubated with substrate followed by protein addition and subsequent incubation for 30 mins by capillary electrophoresis.

Data set [2] deals with T2, Ectonucleotide pyrophosphatase/phosphodiesterase family member 1 (Homo sapiens) (UniProt P22413).
T2 sequence (whole entry): T1 sequence (P22413 whole entry)
As to the kind of experiment: Inhibition of human recombinant NPP1 expressed in insect SF9 cells using ATP as substrate at 10 uM preincubated with substrate followed by protein addition and subsequent incubation for 30 mins by capillary electrophoresis.

The nature of data set [3]: Drug level in MgCl2/CaCl2/CHES buffer treated with (Z)-2-((5-iodofuran-2-yl)methylene)benzo[d]thiazolo[3,2-a]imidazol-3(2H)-one at pH 9 after 24 hrs by LC-MS analysis. It counts as physicochemical. As to conditions: pH 9, 24 h.
Data set [4] is described as follows: Retention time of the compound in MgCl2/CaCl2/CHES buffer at pH 9 by LC-MS analysis. It counts as physicochemical.
For data set [5], the target named is T1, Ectonucleotide pyrophosphatase/phosphodiesterase family member 1. The data set is described as follows: Competitive inhibition of human NPP1 transfected in HEK293 cells using p-Nph-5'-TMP as substrate preincubated for 3 mins followed by substrate addition measured after 15 mins by Cornish-Bowden plot analysis.
Data set [6] has the same target. As to the kind of experiment: Competitive inhibition of human NPP1 expressed in African green monkey COS7 cells using ATP as substrate after 20 mins by Michaelis-Menten plot analysis. It counts as cell-based, COS-7.

Take `O=c1/c(=C/c2ccc(Br)o2)sc2nc3ccccc3n12`: the Ki in data set [1] is 0.61 µM.

Take `COc1cc(/C=c2/sc3nc4ccccc4n3c2=O)ccc1OCc1nnn[nH]1`: in data set [1], the Ki was more than 10 µM. Moreover, in data set [2], the inhibition stood at 21%. The corresponding values for `O=c1/c(=C/c2cccs2)sc2nc3ccccc3n12` are not below 10 µM and 43%. On the same counts, the results for `O=c1/c(=C/c2ccccc2)sc2nc3ccccc3n12` are more than 10 µM and 31%.

Turning to `CN(C)c1ccc(/C=c2\sc3nc4ccccc4n3c2=O)o1`, the Ki in data set [1] was 4.21 µM. Turning to `O=c1/c(=C/c2ccc([N+](=O)[O-])o2)sc2nc3ccccc3n12`, in data set [1], the Ki is 1.07 µM. Regarding `O=c1/c(=C/c2ccc(Cl)cc2)sc2nc3ccccc3n12`, the Ki in data set [1] is more than 10 µM. Moreover, the inhibition in data set [2] is 32%.

For `O=c1/c(=C/c2ccco2)sc2nc3ccccc3n12`, in data set [1], the Ki amounted to 0.981 µM. As to `O=c1/c(=C/C=C/c2ccccc2)sc2nc3ccccc3n12`, the Ki in data set [1] is more than 10 µM. In data set [2], the inhibition came out at 24%. Turning to `CC1CCN(c2cc(N3CCC(C)CC3)c([N+](=O)[O-])cc2/C=c2/sc3nc4ccccc4n3c2=O)CC1`, the Ki in data set [1] was 8.56 µM. For the compound `O=c1/c(=C/c2ccccn2)sc2nc3ccccc3n12`, the Ki in data set [1] is more than 10 µM. In data set [2], the inhibition turned out to be 39%.

`O=C(/C(O)=C\c1ccc(I)o1)n1c(=S)[nH]c2ccccc21`: the Drug metabolism result in data set [3] is given as “metabolite_detected”. Further, the Retention_time in data set [4] was 3.8 min. Consider `O=c1/c(=C/c2ccc(I)cc2)sc2nc3ccccc3n12`, for which the Ki in data set [1] was more than 10 µM. In data set [2], the inhibition is 31%. Regarding `O=c1/c(=C\c2ccc3ccccc3c2)sc2nc3ccccc3n12`, the Ki in data set [1] is more than 10 µM. Also, the inhibition in data set [2] amounted to 24%.

With `CCN(CC)c1ncnc2c1ncn2[C@@H]1O[C@H](COP(=O)(O)OP(=O)(O)C(Br)(Br)P(=O)(O)O)[C@@H](O)[C@H]1O`, in data set [5], the affinity corresponds to a Ki of 12 µM. Take `Cc1ccc(/C=c2\sc3nc4ccccc4n3c2=O)o1`: the inhibitory constant (Ki) in data set [1] was found to be 2.11 µM.

With `O=c1/c(=C/c2cccc(Oc3ccccc3)c2)sc2nc3ccccc3n12`, the Ki in data set [1] is more than 10 µM. In data set [2], the inhibition is 13%. The corresponding values for `O=c1[nH]c2ccccc2cc1/C=c1/sc2nc3ccccc3n2c1=O` are more than 10 µM and 30%.

Turning to `O=c1/c(=C/c2ccc(-c3ccccc3)o2)sc2nc3ccccc3n12`, the Ki in data set [1] is not below 10 µM. Further, in data set [2], the inhibition stood at 48%. On the same counts, the results for `C/C=c1\sc2nc3ccccc3n2c1=O` are more than 10 µM and 0%. On to `O=c1/c(=C\c2ccccc2)sc2nc3ccccc3n12`, for which the Ki in data set [1] was more than 10 µM. In addition, the inhibition in data set [2] is 10%.

Compound `Nc1c(S(=O)(=O)O)cc(Nc2ccc(Nc3nc(Cl)nc(Nc4cccc(S(=O)(=O)O)c4)n3)c(S(=O)(=O)O)c2)c2c1C(=O)c1ccccc1C2=O` [REACTIVE BLUE 2] had a Ki in data set [6] of 0.52 µM.

As to `Cc1ccc(/C=c2\sc3nc4ccccc4n3c2=O)cc1`, in data set [1], the Ki is more than 10 µM. Moreover, the inhibition in data set [2] amounted to 28%. On the same counts, the results for `O=c1/c(=C/c2cccc(OCc3ccccc3)c2)sc2nc3ccccc3n12` are more than 10 µM and 10%. With `O=c1/c(=C/c2ccc(Sc3ccccc3)o2)sc2nc3ccccc3n12`, the Ki in data set [1] is not below 10 µM. Also, the inhibition in data set [2] was 40%. The corresponding values for `O=c1/c(=C/c2cccc(Cc3ccccc3)c2)sc2nc3ccccc3n12` are more than 10 µM and 11%. As for `O=c1/c(=C/c2ccc(N3CCOCC3)cc2)sc2nc3ccccc3n12`, the Ki in data set [1] turned out to be 8.91 µM.
